Experimental data published in paper PMC8122972, “Methoxy-Substituted Tyramine Derivatives Synthesis, Computational Studies and Tyrosinase Inhibitory Kinetics” (Molecules, 2021).
“And” between values parts separate entries of the source, which are not always exact repeats. Equal values may be shown once. “Also recorded” adds a separate entry of the source. Read-outs that look alike come from different tables or passages of the source.

What was measured:
[1] = biological target: T1, human tyrosinase (Homo sapiens, UniProt P14679); test: Human tyrosinase inhibition assay (enzyme prepared from A375 human melanoma cells); assay type: biochemical; settings: L-DOPA, 50 µg/mL (b9)
T1 construct: endogenous in cells; host or cells: A375 human melanoma cells (ATCC), induced with L-tyrosine; sonicated pellet, 10,000 x g supernatant
T1 sequence (P14679 19-529): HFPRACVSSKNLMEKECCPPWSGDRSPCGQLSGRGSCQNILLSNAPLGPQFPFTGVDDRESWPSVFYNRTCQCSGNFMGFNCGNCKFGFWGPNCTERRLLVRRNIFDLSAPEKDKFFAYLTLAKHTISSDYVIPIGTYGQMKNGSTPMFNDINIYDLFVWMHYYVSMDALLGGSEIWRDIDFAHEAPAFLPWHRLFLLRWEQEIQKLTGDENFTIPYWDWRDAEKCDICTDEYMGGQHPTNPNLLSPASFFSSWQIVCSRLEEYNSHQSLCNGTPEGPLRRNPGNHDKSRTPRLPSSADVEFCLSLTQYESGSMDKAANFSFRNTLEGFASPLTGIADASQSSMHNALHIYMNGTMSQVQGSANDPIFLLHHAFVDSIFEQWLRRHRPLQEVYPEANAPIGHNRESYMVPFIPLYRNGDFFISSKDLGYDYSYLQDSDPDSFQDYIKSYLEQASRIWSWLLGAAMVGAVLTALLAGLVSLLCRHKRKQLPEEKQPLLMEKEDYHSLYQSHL
Method: A375 human melanoma cells were obtained from American Type Culture Collection (ATCC; Rockville, MD, USA). A375 cells were grown in Dulbecco’s modified Eagle’s medium (DMEM; Invitrogen, Burlington, ON, Canada) supplemented with L-glutamine, 10% (v/v) fetal bovine serum (FBS; Invitrogen), 50 µg/mL streptomycin (Sigma Aldrich, St. Louis, MO, USA), 50 units/mL penicillin (Sigma Aldrich) and supplemented with 200 µM of L-tyrosine for tyrosinase induction. Cell cultures were incubated at 37 °C, in a humidified atmosphere of 5% CO2. Cells were scraped out from the tissue culture plate with phosphate-buffer saline (PBS) and were homogenized at 4 °C in PBS. The homogenate was centrifuged at 1000× g for 10 min. The precipitate was sonicated in PBS on ice and the mixture was centrifuged at 10,000× g for 30 min. The supernatant containing tyrosinase was used for the measurement of the inhibitory effects.
The assay reaction mixture (200 µL) contained 3.3 mM L-DOPA in 0.33 M phosphate buffer (pH 7.0) and the enzyme in the presence and absence of inhibitors. Fifteen or twenty units of tyrosinase were used to determine the % inhibition. The reaction mixture was incubated at 37 °C for 10 min and the absorbance was recorded at 475 nm using a microplate reader (OPTI Max, Tunable). One unit of the enzyme was defined as the amount of enzyme which increases the absorbance value by 0.001 at 475 per minute under the same conditions as described above.

[2] = biological target: T2, mushroom tyrosinase (Agaricus bisporus, UniProt C7FF04); test: In vitro mushroom tyrosinase inhibition assay (L-DOPA, dopachrome at 475 nm); assay type: biochemical
T2 construct: purchased Sigma Aldrich (St. Louis, MO, USA)
Target sequence in this assay (C7FF04 1-392 limits assumed): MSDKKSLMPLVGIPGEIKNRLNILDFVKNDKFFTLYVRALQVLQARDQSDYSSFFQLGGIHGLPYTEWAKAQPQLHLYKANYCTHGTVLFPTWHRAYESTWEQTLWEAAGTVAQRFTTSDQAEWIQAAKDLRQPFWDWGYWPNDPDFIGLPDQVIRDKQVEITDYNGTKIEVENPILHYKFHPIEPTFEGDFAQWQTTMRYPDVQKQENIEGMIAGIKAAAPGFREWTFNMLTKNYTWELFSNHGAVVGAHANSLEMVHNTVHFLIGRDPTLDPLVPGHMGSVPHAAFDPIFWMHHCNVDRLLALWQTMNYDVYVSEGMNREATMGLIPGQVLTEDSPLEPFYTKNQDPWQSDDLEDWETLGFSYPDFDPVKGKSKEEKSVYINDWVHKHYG
Method: In vitro mushroom tyrosinase (Sigma Aldrich, St. Louis, MO, USA) inhibition assay was performed, following our already reported method [52]. In detail, 140 µL of phosphate buffer (20 mM, pH 6.8), 20 µL of mushroom tyrosinase (30 U/mL) and 20 µL of the inhibitor solution were placed in the wells of a 96-well microplate. After pre-incubation for 10 min at room temperature, 20 µL of L-DOPA (3,4-dihydroxyphenylalanine, Sigma Aldrich, St. Louis, MO, USA) (0.85 mM) was added and the assay plate was further incubated at 25 °C for 20 min. Afterward the absorbance of dopachrome was measured at 475 nm using a microplate reader (OPTIMax, Tunable, Sunnyvale, CA, USA). All of the compounds were dissolved in DMSO and blank tests were performed with solvent DMSO. The IC50 values were reported after subtracting the value of DMSO. […] Each concentration was analyzed in three independent experiments. The IC50 values were determined by the data analysis and graphing software Origin 8.6, 64-bit.
The tyrosinase %age inhibition was determined by using the following formula:Inhibition (%) = [(B − S)/B] × 100(1)
Here, the absorbance of the blank and inhibitor are represented by B and S respectively.

[3] = biological target: tyrosinase; design: method as in PMID 24191339; settings: cited from earlier work
[4] = biological target: T2, mushroom tyrosinase; test: Kinetic analysis of the inhibition of mushroom tyrosinase (Lineweaver-Burk plots); assay type: biochemical; settings: for Inhibition Type: Lineweaver-Burk plots; for Ki: secondary plot of slope
Method: Among the synthesized Ph derivatives Ph5, Ph6 and Ph9 were selected to determine their inhibition type and inhibition constants on mushroom tyrosinase activity. The potential of these derivatives to inhibit the free enzyme and enzyme–substrate complex was determined in terms of enzyme inhibitor (EI) and enzyme–substrate-inhibitor (ESI) constants respectively. […] Meanwhile, in the case of compound Ph6, the Lineweaver–Burk plot gave a family of straight lines, all of which intersected at the same point on the x-axis Figure 2A. […] It is worth mentioning here that the enzyme inhibitory kinetics were performed with a more efficient natural substrate L-DOPA (L-3,4-dihydroxyphenylalanine). Ph5 is a 3,5-dihydroxyl-substituted benzoic acid derivative and Ph9 is 2,4-dihydroxyl-substituted cinnamic acid derivative whereas, Ph6 is an unsubstituted cinnamic acid analogue.
A series of experiments were performed to calculate the inhibitory kinetics of compounds Ph5, Ph6 and Ph9 by following the already reported method. […] The concentration of substrate L-DOPA was between 0.125 to 2 mM in all kinetic studies. Pre-incubation time and measurement time were the same as discussed in mushroom tyrosinase inhibition assay protocol. Maximal initial velocity was determined from initial linear portion of absorbance up to five minutes after addition of enzyme at a 30 s interval. The inhibition type on the enzyme was determined by Lineweaver–Burk plots of inverse velocities (1/V) versus the inverse of substrate concentration 1/[S] mM^−1.
Target sequence in this assay (C7FF04 1-392): as the sequence (C7FF04 1-392 limits assumed) above

[5] = substrate L-DOPA, pH 6.8, 25 °C, read-out: Mushroom Tyrosinase IC50 ± SEM
[6] = mushroom tyrosinase, L-DOPA, read-out: Ki (enzyme inhibitor constant)

COc1ccc(CCNC(=O)COC(=O)/C=C/c2ccc(Cl)cc2)cc1 [Ph10, 2-((4-methoxyphenethyl)amino)-2-oxoethyl (E)-3-(4-chlorophenyl)acrylate] showed an inhibition [1] of 79.2 ± 5.95% and an IC50 [2, 5] of 452 ± 17.1 nM.

COc1ccc(CCNC(=O)COC(=O)c2ccc(O)cc2)cc1 [Ph2, 2-((4-methoxyphenethyl)amino)-2-oxoethyl 4-hydroxybenzoate] gave an inhibition [1] of 73 ± 5.35% and an IC50 [2, 5] of 463 ± 17 nM.

Work on COc1ccc(CCNC(=O)COC(=O)c2ccc(O)c(O)c2)cc1 [Ph4, 2-((4-methoxyphenethyl)amino)-2-oxoethyl 3,4-dihydroxybenzoate] yielded an inhibition [1] of 82.2 ± 7.04% and an IC50 [2, 5] of 329 ± 21 nM.

For O=c1oc2c(O)c(O)cc3c(=O)oc4c(O)c(O)cc1c4c23 [ellagic acid], the “Tyrosinase inhibitory activity IC50” value ([3]; substrate L-DOPA) is given as 151.1 µg/mL.

COc1ccc(CCNC(=O)COC(=O)/C=C/c2ccc(O)cc2)cc1 [Ph8, 2-((4-methoxyphenethyl)amino)-2-oxoethyl(E)-3-(4-hydroxyphenyl)acrylate] showed an inhibition [1] of 86.3 ± 6.54%, a melting point of 119 to 121 °C and an IC50 [2, 5] of 923 ± 53 nM.

Work on COc1ccc(CCNC(=O)COC(=O)/C=C/c2ccccc2O)cc1 [Ph7, 2-((4-methoxyphenethyl)amino)-2-oxoethyl (E)-3-(2-hydroxyphenyl)acrylate] yielded an inhibition [1] of 85.6 ± 6.04%, a melting point of 111 to 113 °C and an IC50 [2, 5] of 104 ± 3.8 nM.

Work on COc1ccc(CCNC(=O)COC(=O)c2ccc(O)cc2O)cc1 [Ph3, 2-((4-methoxyphenethyl)amino)-2-oxoethyl 2,4-dihydroxybenzoate] yielded an inhibition [1] of 79.7 ± 6.61% and an IC50 [2, 5] of 839 ± 38.1 nM.

For COc1ccc(CCNC(=O)COC(=O)c2cc(O)cc(O)c2)cc1 [Ph5, 2-((4-methoxyphenethyl)amino)-2-oxoethyl 3,5-dihydroxybenzoate], the inhibition [1] was 64.8 ± 3.84%, the IC50 [2, 5] was 231 ± 7.8 nM and the Vmax ([4]; inhibitor dose 0.2 µM) was 8.266 × 10^−6 ∆A/s. For the same compound, the Vmax ([4]; inhibitor dose 0.4 µM) was 5.242 × 10^−6 ∆A/s, the “Inhibition Type” value ([4]; mushroom tyrosinase, L-DOPA) was “mixed-type inhibition” and the “Ki′ (enzyme substrate inhibitor constant)” value ([4]; mushroom tyrosinase, L-DOPA, secondary plot of intercept) was 0.475 µM. It also gave a Ki [4, 6] of 219 nM.

In the case of O=c1c(O)c(-c2ccc(O)c(O)c2)oc2cc(O)c(O)c(O)c12 [quercetagetin], the “Tyrosinase inhibitory activity IC50” value ([3]; substrate L-DOPA) is given as 128.41 µg/mL and the “Tyrosinase inhibitory activity IC50” value ([3]; substrate L-tyrosine) is given as 89.31 µg/mL.

Compound COc1ccc(CCNC(=O)COC(=O)c2cccc(O)c2)cc1 [Ph1, 2-((4-methoxyphenethyl)amino)-2-oxoethyl 3-hydroxybenzoate] has an inhibition [1] of 75.6 ± 5.65% and an IC50 [2, 5] of 4070 ± 154 nM.

With COc1ccc(CCNC(=O)COC(=O)C=Cc2ccccc2)cc1 [Ph6, 2-((4-methoxyphenethyl)amino)-2-oxoethyl cinnamate] the “Human Tyrosinase (% Inhibition)” value [1] was 92.24 ± 7.985%, the inhibition at 50 µg/mL [1] was 92.2% and the melting point was 103 to 105 °C. For the same compound, the IC50 ([2]; Mushroom Tyrosinase IC50 ± SEM, substrate L-DOPA, pH 6.8, 25 °C) was 2.04 ± 0.087 nM, the IC50 ([2]; Mushroom tyrosinase IC50, as printed in the abstract) was 2.1 nM and the Ki ([4]; Ki (enzyme inhibitor constant), mushroom tyrosinase, L-DOPA) was 2.3 nM. The Vmax ([4]; inhibitor dose 0.001 µM) was 7.060 × 10^−6 ∆A/s, the Vmax ([4]; inhibitor dose 0.002 µM) was 6.929 × 10^−6 ∆A/s and the “Inhibition Type” value ([4]; mushroom tyrosinase, L-DOPA) was “non-competitive inhibitor; also recorded: non-competitive inhibition”.

With COc1ccc(CCNC(=O)COC(=O)/C=C/c2ccc(O)cc2O)cc1 [Ph9, 2-((4-methoxyphenethyl)amino)-2-oxoethyl(E)-3-(2,4-dihydroxyphenyl)acrylate] the “Human Tyrosinase (% Inhibition)” value [1] was 94.59 ± 8.071%, the inhibition at 50 µg/mL [1] was 94.6% and the IC50 ([2]; read-out: Mushroom tyrosinase IC50) was 0.059 nM. The IC50 [2, 5] was 0.06 nM and 0.059 nM and 0.0595 nM, the Vmax ([4]; inhibitor dose 0.00003 µM) was 4.666 × 10^−6 ∆A/s and the Vmax ([4]; inhibitor dose 0.00012 µM) was 2.666 × 10^−6 ∆A/s. For the same compound, the Vmax ([4]; inhibitor dose 0.00015 µM) was 4.285 × 10^−6 ∆A/s, the “Inhibition Type” value ([4]; mushroom tyrosinase, L-DOPA) was “mixed-type inhibition” and the Ki [4, 6] was 0.09 nM and 0.093 nM.
